Assays:
Assay type in all cases: functional
[1] = test system: Avena sterilis; assay: Herbicidal activity against Avena sterilis accession P22 assessed as induction of weed mortality
[2] = test system: Avena sterilis; assay: Herbicidal activity against Avena sterilis accession P03 assessed as weed survival at 4 times field recommended herbicide dose
[3] = test system: Avena sterilis; assay: Herbicidal activity against Avena sterilis accession P11 assessed as weed survival at 4 times field recommended herbicide dose
[4] = test system: Avena sterilis; assay: Herbicidal activity against Avena sterilis accession P08 assessed as weed survival at 16 times field recommended herbicide dose
[5] = test system: Avena sterilis; assay: Herbicidal activity against Avena sterilis accession P04 assessed as weed survival at 16 times field recommended herbicide dose
[6] = test system: Avena sterilis; assay: Herbicidal activity against Avena sterilis accession P07 assessed as induction of weed mortality
[7] = test system: Avena sterilis; assay: Herbicidal activity against Avena sterilis accession P20 assessed as weed survival at 32 times field recommended herbicide dose
[8] = test system: Avena sterilis; assay: Herbicidal activity against Avena sterilis accession P08 assessed as weed survival at 1 times field recommended herbicide dose
[9] = test system: Avena sterilis; assay: Herbicidal activity against Avena sterilis accession P10S assessed as weed survival at 1/16 times field recommended herbicide dose
[10] = test system: Avena sterilis; assay: Herbicidal activity against Avena sterilis accession P12 assessed as weed survival at 16 times field recommended herbicide dose
[11] = test system: Avena sterilis; assay: Herbicidal activity against Avena sterilis accession P20 assessed as weed survival at 1 times field recommended herbicide dose
[12] = test system: Avena sterilis; assay: Herbicidal activity against Avena sterilis accession P02 assessed as weed survival at 32 times field recommended herbicide dose
[13] = test system: Avena sterilis; assay: Herbicidal activity against Avena sterilis accession P01 assessed as weed survival at 8 times field recommended herbicide dose
[14] = test system: Avena sterilis; assay: Herbicidal activity against Avena sterilis accession P20 assessed as weed survival at 8 times field recommended herbicide dose
[15] = test system: Avena sterilis; assay: Herbicidal activity against Avena sterilis accession P05 assessed as weed survival at 16 times field recommended herbicide dose
[16] = test system: Avena sterilis; assay: Herbicidal activity against Avena sterilis accession P19S assessed as weed survival at 1/8 times field recommended herbicide dose
[17] = test system: Avena sterilis; assay: Herbicidal activity against Avena sterilis accession P13S assessed as weed survival at 1/4 times field recommended herbicide dose
[18] = test system: Avena sterilis; assay: Herbicidal activity against Avena sterilis accession P16 assessed as weed survival at 4 times field recommended herbicide dose
[19] = test system: Avena sterilis; assay: Herbicidal activity against Avena sterilis accession P21S assessed as weed survival at 1/4 times field recommended herbicide dose
[20] = test system: Avena sterilis; assay: Herbicidal activity against Avena sterilis accession P07 assessed as weed survival at 16 times field recommended herbicide dose
[21] = test system: Avena sterilis; assay: Herbicidal activity against Avena sterilis accession P02 assessed as weed survival at 8 times field recommended herbicide dose
[22] = test system: Avena sterilis; assay: Herbicidal activity against Avena sterilis accession P04 assessed as induction of weed mortality
[23] = test system: Avena sterilis; assay: Herbicidal activity against Avena sterilis accession P01 assessed as weed survival at 4 times field recommended herbicide dose
[24] = test system: Avena sterilis; assay: Herbicidal activity against Avena sterilis accession P01 assessed as weed survival at 16 times field recommended herbicide dose
[25] = test system: Avena sterilis; assay: Herbicidal activity against Avena sterilis accession P15 assessed as weed survival at 8 times field recommended herbicide dose
[26] = test system: Avena sterilis; assay: Herbicidal activity against Avena sterilis accession P12 assessed as weed survival at 32 times field recommended herbicide dose
[27] = test system: Avena sterilis; assay: Herbicidal activity against Avena sterilis accession P22 assessed as weed survival at 32 times field recommended herbicide dose
[28] = test system: Avena sterilis; assay: Herbicidal activity against Avena sterilis accession P16 assessed as induction of weed mortality
[29] = test system: Avena sterilis; assay: Herbicidal activity against Avena sterilis accession P20 assessed as weed survival at 16 times field recommended herbicide dose
[30] = test system: Avena sterilis; assay: Herbicidal activity against Avena sterilis accession P07 assessed as weed survival at 32 times field recommended herbicide dose
[31] = test system: Avena sterilis; assay: Herbicidal activity against Avena sterilis accession P05 assessed as weed survival at 32 times field recommended herbicide dose
[32] = test system: Avena sterilis; assay: Herbicidal activity against Avena sterilis accession P13S assessed as induction of weed mortality
[33] = test system: Avena sterilis; assay: Herbicidal activity against Avena sterilis accession P18 assessed as weed survival at 16 times field recommended herbicide dose
[34] = test system: Avena sterilis; assay: Herbicidal activity against Avena sterilis accession P06S assessed as induction of weed mortality
[35] = test system: Avena sterilis; assay: Herbicidal activity against Avena sterilis accession P19S assessed as induction of weed mortality
[36] = test system: Avena sterilis; assay: Herbicidal activity against Avena sterilis accession P14 assessed as weed survival at 4 times field recommended herbicide dose
[37] = test system: Avena sterilis; assay: Herbicidal activity against Avena sterilis accession P03 assessed as weed survival at 32 times field recommended herbicide dose
[38] = test system: Avena sterilis; assay: Herbicidal activity against Avena sterilis accession P06S assessed as weed survival at 1/32 times field recommended herbicide dose
[39] = test system: Avena sterilis; assay: Herbicidal activity against Avena sterilis accession P15 assessed as weed survival at 16 times field recommended herbicide dose
[40] = test system: Avena sterilis; assay: Herbicidal activity against Avena sterilis accession P03 assessed as weed survival at 1 times field recommended herbicide dose
[41] = test system: Avena sterilis; assay: Herbicidal activity against Avena sterilis accession P01 assessed as weed survival at 1 times field recommended herbicide dose
[42] = test system: Avena sterilis; assay: Herbicidal activity against Avena sterilis accession P18 assessed as weed survival at 32 times field recommended herbicide dose
[43] = test system: Avena sterilis; assay: Herbicidal activity against Avena sterilis accession P22 assessed as weed survival at 8 times field recommended herbicide dose
[44] = test system: Avena sterilis; assay: Herbicidal activity against Avena sterilis accession P16 assessed as weed survival at 8 times field recommended herbicide dose
[45] = test system: Avena sterilis; assay: Herbicidal activity against Avena sterilis accession P20 assessed as induction of weed mortality
[46] = test system: Avena sterilis; assay: Herbicidal activity against Avena sterilis accession P02 assessed as weed survival at 1 times field recommended herbicide dose
[47] = test system: Avena sterilis; assay: Herbicidal activity against Avena sterilis accession P16 assessed as weed survival at 32 times field recommended herbicide dose
[48] = test system: Avena sterilis; assay: Herbicidal activity against Avena sterilis accession P17 assessed as weed survival at 16 times field recommended herbicide dose
[49] = test system: Avena sterilis; assay: Herbicidal activity against Avena sterilis accession P22 assessed as weed survival at 16 times field recommended herbicide dose
[50] = test system: Avena sterilis; assay: Herbicidal activity against Avena sterilis accession P03 assessed as weed survival at 16 times field recommended herbicide dose
[51] = test system: Avena sterilis; assay: Herbicidal activity against Avena sterilis accession P06S assessed as weed survival at 1 times field recommended herbicide dose
[52] = test system: Avena sterilis; assay: Herbicidal activity against Avena sterilis accession P14 assessed as induction of weed mortality
[53] = test system: Avena sterilis; assay: Herbicidal activity against Avena sterilis accession P21S assessed as weed survival at 1/16 times field recommended herbicide dose
[54] = test system: Avena sterilis; assay: Herbicidal activity against Avena sterilis accession P17 assessed as weed survival at 1 times field recommended herbicide dose
[55] = test system: Avena sterilis; assay: Herbicidal activity against Avena sterilis accession P09 assessed as weed survival at 4 times field recommended herbicide dose
[56] = test system: Avena sterilis; assay: Herbicidal activity against Avena sterilis accession P21S assessed as weed survival at 1/32 times field recommended herbicide dose
[57] = test system: Avena sterilis; assay: Herbicidal activity against Avena sterilis accession P09 assessed as weed survival at 16 times field recommended herbicide dose
[58] = test system: Avena sterilis; assay: Herbicidal activity against Avena sterilis accession P11 assessed as induction of weed mortality

CCc1cc(C)cc(CC)c1-c1c(OC(=O)C(C)(C)C)n2n(c1=O)CCOCC2 [PINOXADEN]
GR50 [1]: <40 gAi/ha | Survival [2]: 3% | Survival [3]: 0% | Survival [4]: 0% | Survival [5]: 0% | GR50 [6]: <40 gAi/ha | Survival [7]: 0% | Survival [8]: 20% | Survival [9]: 97% | Survival [10]: 0% | Survival [11]: 63% | Survival [12]: 0% | Survival [13]: 0% | Survival [14]: 0% | Survival [15]: 0% | Survival [16]: 50% | Survival [17]: 3% | Survival [18]: 0% | Survival [19]: 20% | Survival [20]: 0% | Survival [21]: 0% | GR50 [22]: 74 gAi/ha | Survival [23]: 17% | Survival [24]: 0% | Survival [25]: 0% | Survival [26]: 0% | Survival [27]: 0% | GR50 [28]: <40 gAi/ha | Survival [29]: 0% | Survival [30]: 0% | Survival [31]: 0% | GR50 [32]: 4.1 gAi/ha | Survival [33]: 0% | GR50 [34]: 3.5 gAi/ha | GR50 [35]: 6.6 gAi/ha | Survival [36]: 0% | Survival [37]: 0% | Survival [38]: 97% | Survival [39]: 0% | Survival [40]: 20% | Survival [41]: 20% | Survival [42]: 0% | Survival [43]: 0% | Survival [44]: 0% | GR50 [45]: 42 gAi/ha | Survival [46]: 20% | Survival [47]: 0% | Survival [48]: 0% | Survival [49]: 0% | Survival [50]: 0% | Survival [51]: 0% | GR50 [52]: <40 gAi/ha | Survival [53]: 97% | Survival [54]: 0% | Survival [55]: 0% | Survival [56]: 100% | Survival [57]: 0% | GR50 [58]: <40 gAi/ha

CCO/N=C(\CC)C1=C(O)CC(c2c(C)cc(C)cc2C)CC1=O (stereo unspecified) [TRALKOXYDIM]
GR50 [1]: 434 gAi/ha | Survival [2]: 60% | Survival [3]: 0% | Survival [4]: 0% | Survival [5]: 60% | GR50 [6]: <400 gAi/ha | Survival [7]: 20% | Survival [8]: 63% | Survival [9]: 40% | Survival [10]: 0% | Survival [11]: 97% | Survival [12]: 0% | Survival [13]: 20% | Survival [14]: 40% | Survival [15]: 0% | Survival [16]: 93% | Survival [17]: 20% | Survival [18]: 30% | Survival [19]: 33% | Survival [20]: 0% | Survival [21]: 20% | GR50 [22]: 7591 gAi/ha | Survival [23]: 43% | Survival [24]: 0% | Survival [25]: 20% | Survival [26]: 0% | Survival [27]: 0% | GR50 [28]: 907 gAi/ha | Survival [29]: 17% | Survival [30]: 0% | Survival [31]: 0% | GR50 [32]: 34 gAi/ha | Survival [33]: 0% | GR50 [34]: 32 gAi/ha | GR50 [35]: 11 gAi/ha | Survival [36]: 0% | Survival [37]: 17% | Survival [38]: 80% | Survival [39]: 20% | Survival [40]: 77% | Survival [41]: 60% | Survival [42]: 0% | Survival [43]: 20% | Survival [44]: 17% | GR50 [45]: 2916 gAi/ha | Survival [46]: 77% | Survival [47]: 0% | Survival [48]: 0% | Survival [49]: 20% | Survival [50]: 20% | Survival [51]: 0% | GR50 [52]: <400 gAi/ha | Survival [53]: 80% | Survival [54]: 50% | Survival [55]: 20% | Survival [56]: 100% | Survival [57]: 0% | GR50 [58]: <400 gAi/ha

— ChEMBL document CHEMBL3046559, “Sterile oat (Avena sterilis L.) cross-resistance profile to ACCase-inhibiting herbicides in Greece” (2012)
